Assay results published in US5998423A, “Methods for modulating melanin production” (Therasys, Inc., priority 1997, dated 1999).

Legend:
[1] = tested on: Mouse, Cloudman S91 Melanoma Cell line; test: Stimulation of melanin synthesis in cell culture (melanin content, OD 475 nm); format: cell-based; settings: result in words; incubation 5-7 days at 37° C.; values only in FIG. 6
Source text: A Mouse, Cloudman S91 Melanoma Cell line (Clone M-3, ATCC CCL-53.1) was used. The cells were flown as monolayers. These cells multiply 7-8 fold in 7 days and are know to produce melanin in over 50% of the cells up to at least 33 passages. Horse serum, fetal Bovine serum, Penicillin-streptomycin and F-10 nutrient mixture were all obtained from Life Technologies (GIBCO, Grand Island, N.Y.). N^6 -Cyclopentyl-9-methyladenine (N-154) and C-102 (CPT) were obtained from RBI (Natick, Mass.). 1-Oleoyl-2-acetyl-rac-glycerol, activated charcoal, Triton X-100, phenyl methyl sulfonyl fluoride, theophylline, synthetic melanin and L-tyrosine-[Ring-3,5] were all obtained from Sigma Chemical Co. (St. Louis, Mo.). The culture medium used was Ham's F-10. The composition of the medium was as follows: Ham's F-10 Nutrient Mixture (82.5%), horse serum (15.0%), fetal bovine serum (2.5%), penecillin-streptomycin mixture (1.0%).
Cells were incubated with the indicated reagents (see FIG. 6) at 37° C. under 5% CO2 atmosphere for 5-7 days. At the time of harvest, exhausted medium was removed from flasks/wells and cells were treated with 1-5 mL of 0.25% trypsin for 2-3 minutes. […]
The pellet (from above extraction) was dissolved in 0.25 mL of 0.5 N NaOH and the optical density was measured at 475 nm. The melanin content was determined from a standard curve obtained by using a synthetic melanin.

melanoma cell lines = settings: cited from earlier work
adenylate cyclase = settings: through activation of adenylate cyclase, thereby increasing cAMP levels; cited from earlier work

Compound: Cn1cnc2c(NC3CCCC3)ncnc21 [N^6 -Cyclopentyl-9-methyladenine]
- stimulation of melanin synthesis [1]: stimulation of melanin synthesis

Compound: Cn1c(=O)c2[nH]cnc2n(C)c1=O [Theophylline, theophylline]
- stimulation of melanogenesis (melanoma cell lines): potent stimulator of melanogenesis

Compound: α-MSH
- melanin production (adenylate cyclase): increase melanin production
